Experiment [1] in a line: 52° C. warm water tail flick assay, iv injection. As to conditions: 10 mg/kg iv; for anti-nociception in tail flick assay: 10 second cutoff, male and female CD-1 mice. In kind it is in vivo, CD-1 mice. In general terms: Hot-plate and tail-flick tests time the reaction to a heat stimulus.
Experiment [2] in a line: 52° C. warm water tail flick assay, icv injection. In kind it is in vivo. Conditions: 10 nmol icv, male and female CD-1 mice.
Experiment [3] in a line: Paclitaxel-induced CIPN, Von Frey filaments mechanical threshold, icv injection. In kind it is in vivo, CD-1 mice. Conditions: 10 nmol icv on day 8, 2 mg/kg paclitaxel on days 1, 3, 5, 7.
For experiment [4], the target named is human Mu Opioid Receptor (MOR) (Homo sapiens, UniProt P35372). Description: biochemical. The format is binding.
Chain of human Mu Opioid Receptor (MOR) (P35372 whole entry): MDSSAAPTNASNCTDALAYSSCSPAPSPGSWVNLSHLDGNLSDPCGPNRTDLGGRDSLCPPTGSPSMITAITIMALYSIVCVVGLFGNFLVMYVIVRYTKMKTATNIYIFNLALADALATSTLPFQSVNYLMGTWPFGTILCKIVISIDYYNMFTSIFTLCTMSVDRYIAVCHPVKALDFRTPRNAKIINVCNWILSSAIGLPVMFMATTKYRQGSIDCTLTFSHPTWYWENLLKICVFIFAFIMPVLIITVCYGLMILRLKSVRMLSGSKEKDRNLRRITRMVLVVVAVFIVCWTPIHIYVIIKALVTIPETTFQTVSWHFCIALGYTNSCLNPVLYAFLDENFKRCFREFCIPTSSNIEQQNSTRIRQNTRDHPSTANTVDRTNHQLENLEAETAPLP
The next experiment deals with OTR (Homo sapiens, UniProt P30559). Description: EC50 (nM) | OTR. The source says: Table printed on a drawing sheet, FIG. 6
Chain of OTR (P30559 whole entry, looked up): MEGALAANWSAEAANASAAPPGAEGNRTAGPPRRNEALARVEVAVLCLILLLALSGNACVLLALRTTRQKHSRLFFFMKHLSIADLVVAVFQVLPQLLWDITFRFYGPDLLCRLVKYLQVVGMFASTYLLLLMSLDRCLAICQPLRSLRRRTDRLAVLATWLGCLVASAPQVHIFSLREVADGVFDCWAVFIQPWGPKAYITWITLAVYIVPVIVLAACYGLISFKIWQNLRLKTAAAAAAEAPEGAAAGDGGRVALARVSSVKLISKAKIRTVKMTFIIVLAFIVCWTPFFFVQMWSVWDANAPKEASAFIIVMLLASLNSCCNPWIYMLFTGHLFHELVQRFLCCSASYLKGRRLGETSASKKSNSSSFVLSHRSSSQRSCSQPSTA
The patent's description of the figure: FIG. 6 is a table showing EC50 for OXTR agonistic activity for some of the representative cyclic oligopeptides of the invention.
First copying reader's note: Each value cell holds the EC50 together with its ± error; NA is not defined on the sheet.

Entries after “also recorded” stand apart in the source; their conditions may differ. Where a SMILES comes first, the peptide text is derived from it. Bridges are numbered along the chain shown (N, C = ends). [ ]: non-standard residue; d: D form. The star is where a group is joined. X1 = OC[C@H]1OC(*)[C@H](O)[C@@H](O)[C@@H]1O; Dap = NC[C@H](N)C(=O)O Where only a bound is given, the exact number is not on record here.

For the molecule `CC[C@H](C)[C@@H]1NC(=O)[C@H](Cc2ccc(O)cc2)NC(=O)[C@@H](N)CC(=O)NC[C@@H](C(=O)N2CCC[C@H]2C(=O)N[C@@H](CC(C)C)C(=O)N[C@@H](COC2O[C@H](CO)[C@@H](O)[C@H](O)[C@H]2O)C(N)=O)NC(=O)[C@H](CC(N)=O)NC(=O)[C@H](CCC(N)=O)NC1=O` (stereo partly drawn) [2LS118-4, Asp-Tyr-Ile-Gln-Asn-Dap-Pro-Leu-SerGlc-CONH2 (SEQ ID NO: 8)] (H-DYIQN[Dap]PLS(X1)-NH2; lactam 1-6; N-terminus assumed), in experiment [1], the “peak effect in tail flick assay” value is reported as “significantly higher peak effect than 2LS118-1” and the “anti-nociception in tail flick assay” value was “near-maximal efficacy comparable to 10 mg/kg morphine; also recorded: almost half to full maximal efficacy vs. morphine”. Further, the “anti-nociception in tail flick assay” value in experiment [2] was “the same degree and duration of anti-nociceptive activity; also recorded: substantially equivalent anti-nociception”. The “anti-nociception in CIPN model (mechanical threshold)” value in experiment [3] is reported as “high anti-nociceptive efficacy; also recorded: substantially equivalent anti-nociception”.

Broadly, the IC50 is the point on the concentration scale where inhibition reaches its midpoint. A high value points to lower potency. In general, Ki refers to a dissociation constant, usually derived from enzyme kinetics or from competition with a known ligand. Read a high Ki as weaker binding. In general, EC50 refers to the concentration that produces a half-maximal response. A lower EC50 goes with an effect from little substance. With `CC[C@H](C)[C@@H]1NC(=O)[C@H](Cc2ccc(O)cc2)NC(=O)[C@@H](N)CC(=O)NC[C@@H](C(=O)N2CCC[C@H]2C(=O)N[C@@H](CC(C)C)C(=O)NCC(N)=O)NC(=O)[C@H](CC(N)=O)NC(=O)[C@H](CCC(N)=O)NC1=O` [2LS118-1, Asp-Tyr-Ile-Gln-Asn-Dap-Pro-Leu-Gly-CONH2 (SEQ ID NO: 5)] (H-DYIQN[Dap]PLG-NH2; lactam 1-6), in experiment [4], the IC50 is over 2500 nM and the Ki is over 2500 nM. On OTR, this molecule had an EC50 of 3760 ± 3120 nM.

As for `CC[C@H](C)[C@@H]1NC(=O)[C@H](Cc2ccc(O)cc2)NC(=O)[C@@H](N)CSSC[C@@H](C(=O)N2CCC[C@H]2C(=O)N[C@@H](CC(C)C)C(=O)NCC(N)=O)NC(=O)[C@H](CC(N)=O)NC(=O)[C@H](CCC(N)=O)NC1=O` [native OT, Cys-Tyr-Ile-Gln-Asn-Cys-Pro-Leu-Gly-CONH2 (SEQ ID NO: 1), reference compound], the “anti-nociception in tail flick assay” value in experiment [1] is “no anti-nociception; also recorded: no efficacy”; in experiment [1] (listed as Native OT), “no effect”; in experiment [2], “the same degree and duration of anti-nociceptive activity; also recorded: substantially equivalent anti-nociception”.

With `CC[C@H](C)[C@@H]1NC(=O)[C@H](Cc2ccc(O)cc2)NC(=O)[C@@H](N)CNC(=O)C[C@@H](C(=O)N2CCC[C@H]2C(=O)N[C@@H](CC(C)C)C(=O)NCC(N)=O)NC(=O)[C@H](CC(N)=O)NC(=O)[C@H](CCC(N)=O)NC1=O` [2LS118-3, Dap-Tyr-Ile-Gln-Asn-Asp-Pro-Leu-Gly-CONH2 (SEQ ID NO: 7)] (H-[Dap]YIQNDPLG-NH2; lactam 1-6), in experiment [4], the IC50 is over 2500 nM and the Ki is over 2500 nM.

In experiment [4], `CC[C@H](C)[C@@H]1NC(=O)[C@H](Cc2ccc(O)cc2)NC(=O)[C@@H](N)CCC(=O)NC[C@@H](C(=O)N2CCC[C@H]2C(=O)N[C@@H](CC(C)C)C(=O)NCC(N)=O)NC(=O)[C@H](CC(N)=O)NC(=O)[C@H](CCC(N)=O)NC1=O` [2LS118-2, Glu-Tyr-Ile-Gln-Asn-Dap-Pro-Leu-Gly-CONH2 (SEQ ID NO: 6)] (H-EYIQN[Dap]PLG-NH2; lactam 1-6) had an IC50 of over 2500 nM and a Ki of over 2500 nM. At OTR, this molecule had an EC50 of 7040 ± 2960 nM.

Values taken from patent US12649765B2 (Arizona Board of Regents on Behalf of the University of …, priority 2020, dated 2026).
